According to the NIST ThermoML archive (doi:10.1021/je100679s):
± gives the expanded uncertainty stated by the source.

Experiment: xn = mol fraction of the nth substance listed
Conditions: 101 kPa, Liquid; for electrical conductivity: DDS-307 conductivity meter

CCCCCCn1cc[n+](C)c1C.O=S(=O)([N-]S(=O)(=O)C(F)(F)F)C(F)(F)F + COC(=O)OC
Conditions	electrical conductivity, 318.15 K [S/m]	electrical conductivity, 323.15 K [S/m]	electrical conductivity, 328.15 K [S/m]	electrical conductivity, 333.15 K [S/m]	mass density, 313.15 K [kg/m3]	mass density, 318.15 K [kg/m3]	mass density, 323.15 K [kg/m3]	mass density, 328.15 K [kg/m3]	mass density, 333.15 K [kg/m3]
x1 = 0.0466	0.492 ± 0.03	0.53 ± 0.032	0.568 ± 0.034	0.606 ± 0.036	–	1089.11 ± 0.79	1082.85 ± 0.76	1076.68 ± 0.74	1070.28 ± 0.72
x1 = 0.0774	0.857 ± 0.051	0.927 ± 0.056	0.996 ± 0.06	1.07 ± 0.064	–	1116.3 ± 0.9	1110.32 ± 0.88	1104.42 ± 0.86	1098.51 ± 0.84
x1 = 0.1154	1.01 ± 0.061	1.08 ± 0.065	1.14 ± 0.069	1.21 ± 0.072	–	1144.64 ± 1	1138.89 ± 1	1133.32 ± 0.98	1127.61 ± 0.96
x1 = 0.1633	1.05 ± 0.063	1.11 ± 0.067	1.16 ± 0.07	1.22 ± 0.073	–	1174.05 ± 1.2	1168.73 ± 1.1	1163.27 ± 1.1	1157.77 ± 1.1
x1 = 0.2269	1.01 ± 0.06	1.05 ± 0.063	1.1 ± 0.066	1.15 ± 0.069	–	1204.45 ± 1.3	1199.16 ± 1.3	1193.98 ± 1.3	1188.58 ± 1.3
x1 = 0.3131	0.876 ± 0.053	0.933 ± 0.056	0.998 ± 0.06	1.07 ± 0.064	1241.28 ± 1.5	1235.85 ± 1.5	1230.72 ± 1.5	1225.63 ± 1.5	1220.43 ± 1.5
x1 = 0.4385	0.706 ± 0.042	0.782 ± 0.047	0.834 ± 0.05	0.915 ± 0.055	1272.94 ± 1.8	1267.89 ± 1.8	1263.01 ± 1.7	1258.14 ± 1.7	1253.16 ± 1.7
x1 = 0.6368	0.492 ± 0.03	0.548 ± 0.033	0.623 ± 0.037	0.686 ± 0.041	1305.67 ± 2.1	1300.91 ± 2.1	1296.31 ± 2.1	1291.79 ± 2.1	1287.1 ± 2
x1 = 0.7472	0.399 ± 0.024	0.469 ± 0.028	0.537 ± 0.032	0.605 ± 0.036	1318.62 ± 2.3	1314.09 ± 2.3	1309.51 ± 2.3	1304.97 ± 2.2	1300.47 ± 2.2
x1 = 1	0.319 ± 0.019	0.369 ± 0.022	0.426 ± 0.026	0.48 ± 0.029	1339.88 ± 2.8	1335.47 ± 2.7	1331.06 ± 2.7	1326.65 ± 2.7	1322.24 ± 2.7
